Test results taken from PubChem BioAssay AID2060623 (Molecular Pharmacology Branch, DTP, NCI, 2025).

Test system: 227483-062-R1-J1-PDC complex spheroids with HUVEC/MSC, viability
Assay: Anticancer human tumor 227483-062-R1-J1-PDC patient-derived pancreatic carcinoma cell line growth inhibition [CLK]
Settings: for IC50: curve of first compound; for viability, T/C: stronger effect = lower value; active = viability on the fitted dose curve at most 10% of control; inactive = the rest
Summary of the method: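 Patient-derived tumor cells grown as complex spheroids with HUVEC endothelial cells and mesenchymal stem cells, treated with drug combinations. Concentrations descend in half-log steps from near clinical Cmax, or from 10 microM if Cmax unknown.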

[1] = second compound 0.0316 µM, first compound 0.0316 µM
[2] = second compound 0.0316 µM, first compound 0.1 µM
[3] = second compound 0.0316 µM, first compound 0.316 µM
[4] = second compound 0.0316 µM, first compound 1 µM
[5] = second compound 0.0316 µM, first compound 3.16 µM
[6] = second compound 0.0316 µM, first compound 10 µM
[7] = second compound 0.1 µM, first compound 0.0316 µM
[8] = second compound 0.1 µM, first compound 0.1 µM
[9] = second compound 0.1 µM, first compound 0.316 µM
[10] = second compound 0.1 µM, first compound 1 µM
[11] = second compound 0.1 µM, first compound 3.16 µM
[12] = second compound 0.1 µM, first compound 10 µM
[13] = second compound 0.316 µM, first compound 0.0316 µM
[14] = second compound 0.316 µM, first compound 0.1 µM
[15] = second compound 0.316 µM, first compound 0.316 µM
[16] = second compound 0.316 µM, first compound 1 µM
[17] = second compound 0.316 µM, first compound 3.16 µM
[18] = second compound 0.316 µM, first compound 10 µM
[19] = second compound 1 µM, first compound 0.0316 µM
[20] = second compound 1 µM, first compound 0.1 µM
[21] = second compound 1 µM, first compound 0.316 µM
[22] = second compound 1 µM, first compound 1 µM
[23] = second compound 1 µM, first compound 3.16 µM
[24] = second compound 1 µM, first compound 10 µM
[25] = second compound 3.16 µM, first compound 0.0316 µM
[26] = second compound 3.16 µM, first compound 0.1 µM
[27] = second compound 3.16 µM, first compound 0.316 µM
[28] = second compound 3.16 µM, first compound 1 µM
[29] = second compound 3.16 µM, first compound 3.16 µM
[30] = second compound 3.16 µM, first compound 10 µM
[31] = second compound 10 µM, first compound 0.0316 µM
[32] = second compound 10 µM, first compound 0.1 µM
[33] = second compound 10 µM, first compound 0.316 µM
[34] = second compound 10 µM, first compound 1 µM
[35] = second compound 10 µM, first compound 3.16 µM
[36] = second compound 10 µM, first compound 10 µM
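Note: spheroids exposed to compounds for seven days before readout.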
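Throughout, for viability, T/C: percent of DMSO vehicle control luminescence as 100% viability.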

C#Cc1c(F)ccc2cc(O)cc(-c3ncc4c(N5CC6CCC(C5)N6)nc(OCC56CCCN5CC(F)C6)nc4c3F)c12 (stereo not given) + CNC(=O)c1ccc(Nc2nc(OC3CCCC3)c3c(-c4ccc5nc(C)oc5c4)c[nH]c3n2)c(OC)c1
< 0.0316 µM: IC50 (second compound 10 µM)
0.301 µM: IC50 (second compound 3.16 µM)
inactive: viability, T/C [1] 101% | viability, T/C [2] 110% | viability, T/C [3] 112% | viability, T/C [4] 131% | viability, T/C [5] 122% | viability, T/C [6] 87.7% | viability, T/C [7] 96.2% | viability, T/C [8] 120% | viability, T/C [9] 116% | viability, T/C [10] 111% | viability, T/C [11] 127% | viability, T/C [12] 68.5% | viability, T/C [13] 106% | viability, T/C [14] 97.7% | viability, T/C [15] 94.8% | viability, T/C [16] 100% | viability, T/C [17] 87.8% | viability, T/C [18] 58.9% | viability, T/C [19] 78.3% | viability, T/C [20] 71.9% | viability, T/C [21] 74.7% | viability, T/C [22] 61.9% | viability, T/C [23] 61.1% | viability, T/C [24] 41.6% | viability, T/C [25] 49.2% | viability, T/C [26] 57.4% | viability, T/C [27] 51% | viability, T/C [28] 41.9% | viability, T/C [29] 43.8% | viability, T/C [30] 33.5% | viability, T/C [31] 42.1% | viability, T/C [32] 38% | viability, T/C [33] 43.7% | viability, T/C [34] 34.6% | viability, T/C [35] 34.8% | viability, T/C [36] 28.3%
> 10 µM: IC50 (second compound 0.0316 µM) | IC50 (second compound 0.1 µM) | IC50 (second compound 0.316 µM)
5.62 µM: IC50 (second compound 1 µM)

C=C(F)C(=O)N1CCN(c2nc(OCC3CCCN3C)nc3c2CCN(c2cccc4cccc(Cl)c24)C3)CC1CC#N (stereo not given) + CNC(=O)c1ccc(Nc2nc(OC3CCCC3)c3c(-c4ccc5nc(C)oc5c4)c[nH]c3n2)c(OC)c1
active: viability, T/C [12] 8.35% | viability, T/C [18] 3.32% | viability, T/C [24] 0.65% | viability, T/C [30] 0.26% | viability, T/C [36] 0.39%
5.79 µM: IC50 (second compound 0.1 µM)
< 0.0316 µM: IC50 (second compound 10 µM)
inactive: viability, T/C [1] 116% | viability, T/C [2] 98% | viability, T/C [3] 117% | viability, T/C [4] 121% | viability, T/C [5] 83.9% | viability, T/C [6] 11.4% | viability, T/C [7] 113% | viability, T/C [8] 118% | viability, T/C [9] 93.7% | viability, T/C [10] 103% | viability, T/C [11] 96.5% | viability, T/C [13] 95.9% | viability, T/C [14] 84.2% | viability, T/C [15] 101% | viability, T/C [16] 102% | viability, T/C [17] 130% | viability, T/C [19] 79.6% | viability, T/C [20] 57.4% | viability, T/C [21] 67.7% | viability, T/C [22] 69% | viability, T/C [23] 58.8% | viability, T/C [25] 52.3% | viability, T/C [26] 47.2% | viability, T/C [27] 51.9% | viability, T/C [28] 41.6% | viability, T/C [29] 22% | viability, T/C [31] 42.4% | viability, T/C [32] 43.3% | viability, T/C [33] 40.3% | viability, T/C [34] 29% | viability, T/C [35] 16.1%
5.82 µM: IC50 (second compound 0.316 µM)
3.78 µM: IC50 (second compound 1 µM)
0.169 µM: IC50 (second compound 3.16 µM)
5.41 µM: IC50 (second compound 0.0316 µM)

C=CC(=O)N1CCN(c2nc(=O)n(-c3c(C)ccnc3C(C)C)c3nc(-c4c(O)cccc4F)c(F)cc23)C(C)C1 (stereo not given) + CNC(=O)c1ccc(Nc2nc(OC3CCCC3)c3c(-c4ccc5nc(C)oc5c4)c[nH]c3n2)c(OC)c1
< 0.0316 µM: IC50 (second compound 10 µM)
> 10 µM: IC50 (second compound 0.0316 µM) | IC50 (second compound 0.1 µM) | IC50 (second compound 0.316 µM) | IC50 (second compound 1 µM)
inactive: viability, T/C [1] 107% | viability, T/C [2] 92% | viability, T/C [3] 135% | viability, T/C [4] 103% | viability, T/C [5] 104% | viability, T/C [6] 108% | viability, T/C [7] 110% | viability, T/C [8] 101% | viability, T/C [9] 111% | viability, T/C [10] 118% | viability, T/C [11] 121% | viability, T/C [12] 107% | viability, T/C [13] 111% | viability, T/C [14] 87.9% | viability, T/C [15] 108% | viability, T/C [16] 104% | viability, T/C [17] 124% | viability, T/C [18] 98.6% | viability, T/C [19] 70.3% | viability, T/C [20] 57.6% | viability, T/C [21] 57.9% | viability, T/C [22] 63.5% | viability, T/C [23] 65.8% | viability, T/C [24] 52.3% | viability, T/C [25] 45.4% | viability, T/C [26] 63.2% | viability, T/C [27] 50.2% | viability, T/C [28] 51.6% | viability, T/C [29] 47.9% | viability, T/C [30] 26.6% | viability, T/C [31] 37.7% | viability, T/C [32] 35.5% | viability, T/C [33] 39.5% | viability, T/C [34] 44.5% | viability, T/C [35] 36% | viability, T/C [36] 18.6%
1.7 µM: IC50 (second compound 3.16 µM)

CC(CO)NC(=O)c1cc(-c2ccc(Cl)cc2)nn(-c2cnn(C)c2)c1=O (stereo not given) + CNC(=O)c1ccc(Nc2nc(OC3CCCC3)c3c(-c4ccc5nc(C)oc5c4)c[nH]c3n2)c(OC)c1
inactive: viability, T/C [1] 100% | viability, T/C [2] 80.3% | viability, T/C [3] 103% | viability, T/C [4] 99.4% | viability, T/C [5] 86.6% | viability, T/C [6] 84.7% | viability, T/C [7] 109% | viability, T/C [8] 102% | viability, T/C [9] 96.1% | viability, T/C [10] 91.4% | viability, T/C [11] 78.3% | viability, T/C [12] 82.6% | viability, T/C [13] 80.2% | viability, T/C [14] 90.7% | viability, T/C [15] 85.5% | viability, T/C [16] 77.5% | viability, T/C [17] 83.7% | viability, T/C [18] 70.8% | viability, T/C [19] 62.6% | viability, T/C [20] 68.2% | viability, T/C [21] 61.4% | viability, T/C [22] 54.1% | viability, T/C [23] 64.9% | viability, T/C [24] 56.9% | viability, T/C [25] 45.5% | viability, T/C [26] 50.3% | viability, T/C [27] 46% | viability, T/C [28] 45.5% | viability, T/C [29] 49% | viability, T/C [30] 38.3% | viability, T/C [31] 36.5% | viability, T/C [32] 41.8% | viability, T/C [33] 51.3% | viability, T/C [34] 37.3% | viability, T/C [35] 30.6% | viability, T/C [36] 36%
< 0.0316 µM: IC50 (second compound 3.16 µM) | IC50 (second compound 10 µM)
> 10 µM: IC50 (second compound 0.0316 µM) | IC50 (second compound 0.1 µM) | IC50 (second compound 0.316 µM) | IC50 (second compound 1 µM)

COC1C=CCC(C)C(C)S(=O)(=O)NC(=O)c2ccc3c(c2)N(CC2CCC21)CC1(CCCc2cc(Cl)ccc21)CO3 (stereo not given) + CNC(=O)c1ccc(Nc2nc(OC3CCCC3)c3c(-c4ccc5nc(C)oc5c4)c[nH]c3n2)c(OC)c1
inactive: viability, T/C [1] 84% | viability, T/C [2] 94.8% | viability, T/C [3] 106% | viability, T/C [4] 81.1% | viability, T/C [5] 88.3% | viability, T/C [6] 20.1% | viability, T/C [7] 78.6% | viability, T/C [8] 88.7% | viability, T/C [9] 77.4% | viability, T/C [10] 64.7% | viability, T/C [11] 59.7% | viability, T/C [12] 17.8% | viability, T/C [13] 94% | viability, T/C [14] 76.3% | viability, T/C [15] 76.6% | viability, T/C [16] 43.2% | viability, T/C [17] 30% | viability, T/C [18] 14.6% | viability, T/C [19] 75% | viability, T/C [20] 58.7% | viability, T/C [21] 45.9% | viability, T/C [22] 28% | viability, T/C [23] 16.7% | viability, T/C [24] 10.8% | viability, T/C [25] 54% | viability, T/C [26] 41.2% | viability, T/C [27] 33% | viability, T/C [28] 17.7% | viability, T/C [29] 9.9% | viability, T/C [31] 38.7% | viability, T/C [32] 34.4% | viability, T/C [33] 25.8% | viability, T/C [34] 14.4% | viability, T/C [35] 9.05%
active: viability, T/C [30] 8.25% | viability, T/C [36] 9.22%
3.74 µM: IC50 (second compound 0.1 µM)
0.207 µM: IC50 (second compound 1 µM)
< 0.0316 µM: IC50 (second compound 10 µM)
0.897 µM: IC50 (second compound 0.316 µM)
0.0462 µM: IC50 (second compound 3.16 µM)
6.02 µM: IC50 (second compound 0.0316 µM)
